This note sets out measurements from the METLIN SMRT retention time set (Domingo-Almenara et al. 2019).

A short description of the data set: gradient 5% acetonitrile 3 min, to 50% in 2 min, to 85% in 15 min, held 3 min, 100 µL/min. The note with it: column: Zorbax Extend-C18 2.1 x 50 mm; eluents: water / acetonitrile, 0.1% formic acid. An outline of the steps:
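Pure standards were analyzed in mixtures of ~100 molecules using HPLC coupled to a quadrupole time-of-flight mass spectrometer, in both positive and negative ionization mode. Separation used a Zorbax Extend-C18 column (2.1 × 50 mm, 1.8 μm) at 100 μL/min, with water and acetonitrile each containing 0.1% formic acid. Dead and dwell volumes were 40 μL and 900 μL, and data were collected over 3 months. Retention time was read from computationally picked adduct peaks, each inspected manually.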
The molecule `Cc1ccc2nc(N3CCN(C(=O)C(C)(C)C)CC3)c(-c3noc(-c4ccccc4)n3)cc2c1` gave an RP-LC retention time of 1370 s.

On to `Cc1ccc(CNC(=O)C2(C)CN(S(C)(=O)=O)CC(=O)N2Cc2ccc(F)cc2)cc1` (stereo not drawn), for which the RP-LC retention time was determined as 836 s.

In turn, `CCc1ccc(CNC(=O)C2CCN(Cc3cn(CC)c4ccc(OC)cc34)CC2)cc1` had an RP-LC retention time of 761 s. On to `CCOC(=O)c1c(C)oc2nc(C)nc(N3CCN(Cc4ccccc4)CC3)c12`, for which the RP-LC retention time turned out to be 583 s. Take `COc1cccc(C2Cn3nnc(-c4nc(-c5ccc(OCc6ccccc6)cc5)no4)c3CO2)c1` (stereo not drawn): the RP-LC retention time worked out at 1340 s. Under `OC1(c2ccccn2)CCOC2(CCN(Cc3ccc(Cl)cc3F)CC2)C1` (stereo not drawn) stands 579 s; under `Cc1ccc(N2C(=O)C3N=NN(Cc4nc(-c5ccc(C)c(C)c5)no4)C3C2=O)cc1` (stereo not drawn), 1110 s. The value for `COc1ccc(C2C(C(=O)C3CC3)=C(O)C(=O)N2CCCOC(C)C)cc1OC` (stereo not drawn) was 736 s; that for `CCOc1cc(C(=O)N2CCNC(=O)C2C)cc(OCC)c1OCC` (stereo not drawn) was 638 s; that for `CC(=O)c1ccc(NC(=O)c2cnc(-c3ccccc3)nc2-c2ccncc2)cc1` was 795 s. Under `Cn1ncc2c(N3CCSCC3)nc(C(=O)NC3CC3)nc21` stands 670 s; under `Cc1ccc(S(=O)(=O)N2C[C@@H]3C[C@H](NC(=O)c4cccnc4)[C@H]2C3)cc1C`, 724 s. For `Cc1ccc(-c2noc(Cn3c(=O)n(-c4ccccc4F)c(=O)c4sccc43)n2)cc1C`, the RP-LC retention time was 1090 s. The value for `O=C(NCc1ccc2c(c1)OCO2)C(=O)Nc1ccon1` was 655 s. Molecule `CCc1ccccc1S(=O)(=O)N1CCc2c(c(-c3nc(C4CC4)no3)nn2C)C1` gave an RP-LC retention time of 1010 s. The value for `CCN1c2ccccc2C(=O)NC12CCN(C(=O)c1cc(OC)cc(OC)c1)CC2` was 771 s; that for `CN(C)c1ccc(-c2nc3cnc(Br)cn3c2Nc2ccc3c(c2)OCO3)cc1` was 894 s; that for `CCCn1ncc(N2CCC(C(=O)NCc3cccc(F)c3)CC2)cc1=O` was 706 s. Under `Cc1ccc(CNC(=O)c2ccc(NC(=O)C3CCC3)cc2N2CCOCC2)o1` stands 818 s; under `COCCCNC(=O)Cn1cccc(-c2nc(-c3ccc(F)cc3)no2)c1=O`, 702 s. The value for `O=C(Cc1nnc(-c2cccc(F)c2)o1)N1CCCCC1` was 630 s. For `CCc1cccc(NC(=O)Cc2nc(C)c(C(=O)NCC(C)C)s2)c1`, the RP-LC retention time worked out at 886 s. Under `Cc1cc(C)cc(N2CCC(NC(=O)NC(C)C)C2=O)c1` (stereo not drawn) stands 736 s; under `CCc1nc(-c2csc(S(=O)(=O)N3CCCC(C(=O)Nc4ccc(OC)cc4)C3)c2)no1` (stereo not drawn), 917 s. Under `CCCn1cc(C(=O)N2CCCC2)c2nn(-c3ccccc3)c(=O)c-2c1` stands 664 s; under `O=C(CSc1ncnc2c1cnn2-c1ccccc1)Nc1ccc(OC(F)(F)F)cc1`, 1160 s; under `Cn1c(=O)n(C)c2cc(S(=O)(=O)c3ccccc3)c(NC(=O)Cc3cccc(F)c3)cc21`, 799 s. The molecule `COc1ccc(CNC(=O)c2cc3c(s2)CCN(C(C)=O)C3)cc1` yielded an RP-LC retention time of 696 s. The molecule `Cc1ccc(S(=O)(=O)CC(=O)Nc2nc(-c3ccc4ccccc4c3)cs2)cc1` came in with an RP-LC retention time of 1100 s. Under `O=C1CC(c2noc(CCc3ccccc3)n2)CN1c1ccccc1` (stereo not drawn) stands 956 s. The value for `CCOc1ccc(N2CC(NC(=O)C(=O)c3c[nH]c4ccccc34)CC2=O)cc1` (stereo not drawn) was 791 s; that for `CCc1ccc(NC(=O)N2CCc3c(c(-c4nnc(-c5ccc(F)cc5)o4)nn3C)C2)cc1` was 965 s; that for `CC1CCc2[nH]nc(C(=O)N3CCN(C(C)C)CC3)c2C1` (stereo not drawn) was 588 s. The value for `Cc1cc(F)ccc1NC(=O)C1CCc2nc(N3CCOCC3)ncc2C1` (stereo not drawn) was 735 s.

`O=S(=O)(Cc1ccccc1)N1CCC(c2nc(C3CC3)no2)C1` (stereo not drawn) registered an RP-LC retention time of 875 s. The value for `CCCN1CCN(c2cc(C(=O)O)c3cc(NS(=O)(=O)c4cc(F)ccc4F)ccc3n2)CC1` was 618 s; that for `CC(C)NC(=O)N1CCc2c(c(-c3nc(-c4cccc(F)c4)no3)nn2C)C1` was 853 s.

As for `O=C1CC(c2cccc(F)c2)c2c(c(C(=O)O)cn2-c2ccc(F)cc2)N1` (stereo not drawn), the RP-LC retention time turned out to be 774 s. The value for `Cc1cc(C)cc(N2CCC(NC(=O)c3ccc(Cl)s3)C2=O)c1` (stereo not drawn) was 956 s; that for `Cc1cc(CC(=O)N2CCCn3ccnc3C2C2CCCC2)on1` (stereo not drawn) was 587 s. The value for `COc1ccc2[nH]cc(CCNC(=O)Cn3nc(C)c4c(C)onc4c3=O)c2c1` was 698 s; that for `Cc1ccc(-c2nc(-c3ccc4ncn(C(C)C)c4c3)no2)cc1` was 857 s; that for `COc1ccc(Cl)cc1NC(=O)C1CCCN(c2ncnc3c2nc2n3CCCCC2)C1` (stereo not drawn) was 934 s. As to `Cc1oc(C2CCN(C(=O)Cc3c(F)cccc3Cl)CC2)nc1C(=O)N1CCCC1`, the RP-LC retention time stood at 848 s. Regarding `O=C(c1cccc(Cl)c1)N1CCC2(CC1)OCC(C(=O)N1CCCC1)N2C(=O)c1cccc(F)c1` (stereo not drawn), the RP-LC retention time came to 765 s. Under `CN1CCN(c2cc(C(=O)O)c3cc(NC(=O)C(C)(C)C)ccc3n2)CC1` stands 578 s; under `COc1cccc(-c2ccnc3nc(-c4cccs4)nn23)c1`, 906 s. `CC1=C(c2ccc(F)cc2)S(=O)(=O)N=C1N1CCCN(C(=O)C(C)(C)C)CC1` had an RP-LC retention time of 814 s. As for `O=C(Nc1nnc(SCc2c(F)cccc2Cl)s1)c1cc(C2CC2)on1`, the RP-LC retention time came out at 1010 s. `CCOc1ccc(-c2cn3ccn(-c4cccc(F)c4)c(=O)c3n2)cc1` returned an RP-LC retention time of 846 s. Under `O=C(Nc1ccccc1Br)N1CCc2nc(-c3ccc(F)cc3)ncc2C1` stands 1020 s. The value for `CC(C)c1ccccc1NC(=O)C1CCN(S(C)(=O)=O)c2ccccc2O1` (stereo not drawn) was 945 s. Under `CC(C)n1cc(S(=O)(=O)NCc2cccc(Cl)c2)c2cccnc21` stands 928 s; under `Cc1ccc(NS(=O)(=O)c2c[nH]c3ncccc23)cc1F`, 761 s.

Molecule `Oc1cccc(-c2nc3cnccn3c2Nc2ccccc2)c1` yielded an RP-LC retention time of 710 s. With `CCC(CO)NCc1ccc(-c2ccc(Cl)cc2Cl)o1` (stereo not drawn), the RP-LC retention time was determined as 692 s. Consider `CCCN1C(=O)COc2ccc(-c3csc(NC(=O)c4cccc(Br)c4)n3)cc21`, for which the RP-LC retention time worked out at 1160 s. Under `COc1ccc(C)cc1NC(=O)N1CCC2(CC1)NC(=O)c1ccccc1N2C` stands 807 s.

Molecule `CCOc1ccc(C(=O)N2CCCC2c2nc(-c3ccc(OC)cc3)no2)cc1OCC` (stereo not drawn) had an RP-LC retention time of 982 s. Under `Cc1cc2ccccc2n2c(SCC(=O)NCc3ccco3)nnc12` stands 663 s.

For the molecule `CCOC(=O)c1ccccc1NC(=O)Cn1c(=O)n(-c2cccc(C)c2)c(=O)c2c1cc(C)n2C`, the RP-LC retention time stood at 966 s.

Consider `O=C(Cc1cccs1)NCCn1ncc2c(=O)n(Cc3ccccc3F)cnc21`, for which the RP-LC retention time was 666 s. As for `O=C1CCCc2cc(S(=O)(=O)NCCN3CCN(c4ccccc4)CC3)ccc2N1`, the RP-LC retention time was 621 s. `CSc1cccc(NC(=O)C2CCCN(C(=O)c3cc(-c4ccncc4)n[nH]3)C2)c1` (stereo not drawn) came in with an RP-LC retention time of 645 s. In turn, `CCOc1ccc(NC(=O)Cc2nnc(-c3ccc4ncccc4c3)o2)cc1` gave an RP-LC retention time of 718 s.

In turn, `CC(C)Cc1ccc(S(=O)(=O)N2CCC3(CC2)CCC(O)(CN2CCCC2)CC3)cc1` registered an RP-LC retention time of 786 s.

Consider `c1ccc(-c2nnc(-c3cccnc3NCc3ccc4c(c3)OCO4)o2)cc1`, for which the RP-LC retention time amounted to 1160 s. For the molecule `Cc1nn(CC(=O)Nc2ccccc2C(F)(F)F)c(C)c1[N+](=O)[O-]`, the RP-LC retention time is 792 s. In turn, `CN1C(=O)c2cccn2CC1CNC(=O)NCCc1ccccc1` (stereo not drawn) yielded an RP-LC retention time of 661 s. The value for `Cc1cc(C)c(S(=O)(=O)N2CCCC2c2nc(-c3ccccc3C)no2)cc1C` (stereo not drawn) was 1300 s. Under `COc1ccccc1NC(=O)C1c2cc(OC)c(OC)cc2C(=O)N2CCc3ccccc3C12` (stereo not drawn) stands 862 s; under `O=C(C1=NN(Cc2ccc(Cl)cc2)c2ccccc2S1(=O)=O)N1CCOCC1`, 854 s. In turn, `Cc1ccccc1Cn1cc(-c2ccncc2)cc1C(=O)NCc1ccccc1` came in with an RP-LC retention time of 735 s. Under `CCCCN(Cc1ccco1)C(=O)C1CCCN(c2ncnc3c2nc2n3CCCCC2)C1` (stereo not drawn) stands 949 s; under `Cc1ccc(S(=O)(=O)N2CCCC(CCC(=O)NC3CCS(=O)(=O)C3)C2)cc1` (stereo not drawn), 765 s; under `CCN(CCNC(=O)c1cccc2c1SCCC2=O)Cc1ccccc1`, 627 s.

Turning to `COC(=O)CNC(=O)C1COc2ccc(NC(=O)C(C)C)cc2C1` (stereo not drawn), the RP-LC retention time stood at 658 s. Take `CCCn1c(C)cnc1C1CN(S(=O)(=O)c2ccc(F)c(F)c2)C1`: the RP-LC retention time amounted to 695 s.
